PubChem BioAssay (NCI)
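Grown in 96-well plates, cells were treated for 48 hours with each compound at five concentrations. Insufficient inhibition: endpoint recorded as highest concentration tested. At the TGI there is no net growth.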

How the values were obtained:
Assay in all cases: NCI tumour cell line growth inhibition, 48 h
CCRF-CEM leukemia = tested on: CCRF-CEM leukemia
HOP-62 NSCLC = tested on: HOP-62 NSCLC
HCT-15 colon = tested on: HCT-15 colon
NCI-H460 lung = tested on: NCI-H460 lung
K-562 leukemia = tested on: K-562 leukemia
NCI/ADR-RES ovarian = tested on: NCI/ADR-RES ovarian
SK-MEL-2 melanoma = tested on: SK-MEL-2 melanoma
HT29 colon = tested on: HT29 colon
NCI-H522 lung = tested on: NCI-H522 lung
SN12C renal = tested on: SN12C renal

SMILES | TGI (CCRF-CEM leukemia) [µM] | TGI (HOP-62 NSCLC) [µM] | TGI (HCT-15 colon) [µM] | TGI (NCI-H460 lung) [µM] | TGI (K-562 leukemia) [µM] | TGI (NCI/ADR-RES ovarian) [µM] | TGI (SK-MEL-2 melanoma) [µM] | TGI (HT29 colon) [µM] | TGI (NCI-H522 lung) [µM] | TGI (SN12C renal) [µM]
COC(=O)[C@H](C)NC(=O)[C@H](NS(=O)(=O)c1nc2ccccc2s1)c1ccccc1 | > 100 | 74.4 | > 100 | > 100 | > 100 | > 100 | 25.2 | > 100 | – | –
COc1cc(C2c3cc4c(cc3[C@@H](Nc3ccc(F)cc3)C3COC[C@H]23)OCO4)cc(OC)c1O (stereo not given in full) | 8.45 | > 25 | 18.9 | 3.83 | 20.7 | > 25 | – | 8.82 | > 25 | 23.1
CC(=O)OC12c3ccccc3C(c3ccccc31)C1C(=O)N(N=C(C)C)C(=O)C12 (stereo not given) | > 100 | > 100 | > 100 | – | > 100 | > 100 | – | > 100 | – | > 100
CC1(C)N=C(/C(Cl)=[N+](/[O-])C(=O)c2ccc(Cl)cc2)C(C)(C)N1O | 45.7 | > 100 | 35.8 | > 100 | > 100 | 63.8 | > 100 | 43 | – | 47
O=C(Nc1cccc2ccccc12)c1cc2ccccc2oc1=O | > 100 | 49.4 | > 100 | > 100 | > 100 | > 100 | > 100 | > 100 | – | > 100
CC(C)C(NCc1c2ccccc2[n+](C)c2ccccc12)C(=O)O (stereo not given) | – | 19.7 | 13.9 | 29.1 | 18.5 | – | 17 | 10.3 | 3.69 | 18
[N-]=[N+]=CC(=O)C1CCN(c2ccccc2)C1=O (stereo not given) | > 10 | > 10 | > 10 | > 10 | > 10 | > 10 | > 10 | > 10 | – | > 10
COc1cc2c(cc1OC)C1=C(C=O)c3ccc(OC)c(OC)c3C(O)N1CC2 (stereo not given) | > 100 | > 100 | > 100 | > 100 | – | 79.6 | 28.7 | > 100 | 75.2 | > 100
NC(=O)CSc1nc2ccccc2c(=O)n1N | – | – | > 100 | > 100 | > 100 | > 100 | > 100 | > 100 | > 100 | > 100
CC1CC(c2ccccc2)=Nc2ccccc2S1 (stereo not given) | > 100 | > 100 | > 100 | > 100 | > 100 | – | > 100 | > 100 | > 100 | > 100
